Assay in all cases: relative viability (nuclei count vs DMSO), 5 days (fraction); higher = more cells survive
Compound in assay [1]: CC1=CN2C(=O)C=C(N=C2C(=C1)C(C)NC3=CC=CC=C3)N4CCOCC4 [TGX 221] + CC(=O)c1c(C)c2cnc(Nc3ccc(N4CCNCC4)cn3)nc2n(C2CCCC2)c1=O [Palbociclib] (partner 0.5 µM)
Summed up:
(§1)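 Lung cancer cell lines in 1536-well plates got either a single drug or a fixed anchor-drug dose together with five library-drug doses (not always all listed) in √10 steps, by pin tool, on the day after seeding. Nuclei were counted after 5 days, and relative viability is the treated-to-vehicle ratio of nuclei counts. Values are medians of duplicate plates.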

Compound in assay [2]: CC1=CN2C(=O)C=C(N=C2C(=C1)C(C)NC3=CC=CC=C3)N4CCOCC4 [TGX 221] + CC(C)C[C@H](NC(=O)[C@H](Cc1ccccc1)NC(=O)c1cnccn1)B(O)O [Bortezomib] (partner 0.002 µM)
Summed up: as §1

Compound in assay [3]: CC1=CN2C(=O)C=C(N=C2C(=C1)C(C)NC3=CC=CC=C3)N4CCOCC4 [TGX 221] + O=C(c1cc(Cc2n[nH]c(=O)c3ccccc23)ccc1F)N1CCN(C(=O)C2CC2)CC1 [Olaparib] (partner 8 µM)
In short, it runs like this:
as §1

Compound in assay [4]: O=C(CCCCCCNC(=O)c1cnc(N(c2ccccc2)c2ccccc2)nc1)NO [Ricolinostat] + COc1cccc2cc(-c3nc([C@H]4CC[C@H](C(=O)O)CC4)n4ncnc(N)c34)[nH]c12 [OSI-027] (partner 0.5 µM)
In short, it runs like this:
as §1

Consider NCI-H1792, for which the relative viability in assay [1] (first compound 0.08 µM) is 0.593; in assay [1] (first compound 0.253 µM), 0.625; in assay [1] (first compound 0.8 µM), 0.654; in assay [1] (first compound 2.53 µM), 0.57; in assay [1] (first compound 8 µM), 0.582; in assay [2] (first compound 0.08 µM) it was 0.89. Moreover, the relative viability turned out to be 0.922 in assay [2] (first compound 0.253 µM); 0.944 in assay [2] (first compound 0.8 µM); 0.904 in assay [2] (first compound 2.53 µM); 0.838 in assay [2] (first compound 8 µM); 0.267 in assay [3] (first compound 0.08 µM); 0.385 in assay [3] (first compound 0.253 µM). For the same cell line, the relative viability in assay [3] (first compound 0.8 µM) turned out to be 0.386; in assay [3] (first compound 2.53 µM) it was 0.383; in assay [3] (first compound 8 µM), 0.287; in assay [4] (first compound 0.253 µM), 0.709; in assay [4] (first compound 0.8 µM), 0.693; in assay [4] (first compound 2.53 µM), 0.759.

These data come from the supplement of paper PMC10307832.
